Reference: patent US10576145B2, “CD200 inhibitors and methods of use thereof” (REGENTS OF THE UNIVERSITY OF MINNESOTA, priority 2014, dated 2020)
“Also recorded” adds a separate entry of the source.

Assays:
[1] = test system: naïve splenocytes pulsed with purified CD200 protein; assay: Naive splenocytes pulsed with purified CD200 +/- CD200R antagonist: MDSC expansion and arginase-I; type: cell-based
Method: FIGS. 17A-17B. CD200R antagonist blocks MDSC expansion and tumor suppressive effects. (FIG. 17A) Murine glioma GL261 was incubated with naïve splenocytes in a trans-well plate+/−CD200R antagonist and analyzed for MDSC expansion and cytokine production. (FIG. 17B) Naïve splenocytes were pulsed with purified CD200+/−CD200R antagonist and analyzed for MDSC expansion and arginase-I production. Error bars are ±SEM, statistical significance was determined by one-way ANOVA, post hoc analysis by Dunn's multiple comparison test, *p<0.05, ** p<0.001.
Spleens were harvested homogenized in RPMI media containing 10% FBS, penicillin/streptomycin (100 U/ml), and 0.1 mg/ml Normocin (Invivogen). Cells were then filtered using a 70-micron filter, centrifuged, and resuspended in 5 ml of Ammonium-Chloride-Potassium buffer and incubated for 5 minutes at room temperature to lyse RBCs. […] Following 24 h incubation, CD200R antagonist peptide 6059 was added to the appropriate wells, incubated for 20 min prior to adding 5 μg of purified CD200 protein (Sino Biological) and incubated for a further 72 hrs, harvested and analyzed for anti-CD11b and […] population using an LSR II flow cytometer. […] Following incubation, 50 μl culture supernatant was analyzed for IFN-γ using a flow cytometric bead array according to the manufacturer's protocol (BD Biosciences). […]

[2] = molecular target: T1, CD200R (Mus musculus, UniProt Q9ES57); conditions: reportedly; cited from earlier work
T1 sequence (Q9ES57 26-326): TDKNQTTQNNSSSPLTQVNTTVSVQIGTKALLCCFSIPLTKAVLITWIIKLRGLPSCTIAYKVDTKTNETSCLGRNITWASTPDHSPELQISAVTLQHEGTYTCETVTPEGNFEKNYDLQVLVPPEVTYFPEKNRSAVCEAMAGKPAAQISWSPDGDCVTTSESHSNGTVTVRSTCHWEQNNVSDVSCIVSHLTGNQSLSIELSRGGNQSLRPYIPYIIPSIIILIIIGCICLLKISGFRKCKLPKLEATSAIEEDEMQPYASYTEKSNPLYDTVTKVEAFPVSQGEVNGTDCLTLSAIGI

[3] = test system: GL261 tumor bearing mice; assay: GL261 glioma model: tumor lysate vaccine +/- antagonist, tumor growth by imaging and survival; type: in vivo, C57BL/6 mice; conditions: for Tumor growth: tumor lysate vaccine + antagonist vs tumor lysate alone or saline, weekly imaging; for Survival: GL261 glioma model, tumor lysate vaccine + antagonist
Method: FIGS. 4A-4C. FIG. 4A) GL261 tumor bearing mice were inoculated with 50 μg of antagonist 6059 one day prior to vaccination with tumor lysate (65 μg)+/−the antagonist 6059 (50 μg). FIG. 4B) Mice were imaged weekly for tumor growth. The following groups were studied: saline (1), tumor lysate (2), and tumor lysate+6059 (3). FIG. 4C) Percent survival post inoculation for saline (1), tumor lysate (2), and tumor lysate+6059 (3) groups.
FIGS. 5A-5B. FIG. 5A) GL261 tumor bearing mice were inoculated with 10 μg of 6059 on day 2 into the tumor site then with 50 μg of antagonist 6059 one day prior to vaccination with tumor lysate (65 μg)+the antagonist 6059 (50 μg). FIG. 5B) Mice were imaged weekly for tumor growth. The following groups were studied: saline (1), tumor lysate+6059 (2), and CNS+tumor lysate+6059 (3) groups.
Whether vaccination with CD200R antagonists could enhance the survival of tumor-bearing mice was also studied. […] GL261 tumor bearing mice were vaccinated weekly with saline, tumor lysates (TL) or tumor lysates+an antagonist (4004, 4013, 6059).
Tumor-bearing mice were inoculated in the brain with 10 μg of the inhibitor 6059 at the same coordinates at which the tumor was injected two days previously. This was followed by weekly injections of tumor lysate+inhibitor (FIGS. 5A-5B).
Tumors were implanted into female C57BL/6 mice (6-8 wk old) (Jackson Laboratory) and maintained in a pathogen-free facility according to the guidelines of the University of Minnesota Animal Care and Use Committee. The GL261 orthotopic transplant model was established in C57BL/6 (B6) mice by inoculation with 15,000 GL261-Luc^+ cells in 1 μl of saline. Tumors were implanted stereotactically into the right striatum; coordinates were 2.5 mm lateral, 0.5 mm anterior of bregma, and 3 mm deep from the cortical surface of the brain^19. Tumor burden was determined by bioluminescent imaging. Light emitted from the tumors was quantified using Living Image software (Xenogen) and expressed as photons per second per centimeter squared per steradian (p/s/cm^2/sr). GL261 cells for tumor lysate vaccines were cultured in neural stem cell media consisting of DMEM/F12 (1:1) with L-glutamine, sodium bicarbonate, penicillin/streptomycin (100 U/ml), B27 and N2 supplements (Life Technologies), and 0.1 mg/ml Normocin (Invivogen). Cultures were maintained at 5% 02 and supplemented with 20 ng/ml EGF and FGF semiweekly (R&D Systems, Minneapolis, Minn.). […] Mice were euthanized when tumors reached 1000 mm^3. […] Tumor cells used to establish both models were cultured in DMEM containing 10% FBS, penicillin/streptomycin (100 U/ml), and 0.1 mg/ml Normocin (Invivogen) in atmospheric oxygen.
Tumor lysates were prepared by dissociating tumor cells with non-enzymatic dissociation solution (Sigma). Cells were then washed 3 times with PBS, re-suspended in 500 μL PBS, and frozen overnight at −80° C. Cells were then lysed by five freeze/thaw cycles of freezing in liquid nitrogen and thawing in a 55° C. water bath. Cell debris was pelleted by centrifugation at 14,000 RCF, and the protein concentration of the supernatant was determined using a Bradford assay. Lysates were stored at −80° C. until use. Each vaccine was prepared on the day of vaccination and consisted of 65 μg of protein tumor lysate and 10 μg Poly:ICLC (Oncovir, Inc.), with or without 50 μg of the 6059 peptide antagonist, in a final volume of 100 μL injected intradermally in the back of the neck. For survival studies, vaccines were administered weekly starting three days post-tumor implantation for a total of 6 doses. In T cell priming experiments, CD8 T-cell priming experiments, animals were vaccinated intradermally on four consecutive days with 100 μg Ovalbumin (OVA) and 10 μg Poly:ICLC, and once more on day eleven^19.

## NTIGDGGCY [Antagonist 6059]
[1]
  CD200 induced arginase-I secretion: blocked CD200 induced arginase-I secretion
[1]; pre-incubation with antagonist
  CD200 induced MDSC expansion: significantly blocked CD200 induced MDSC expansion
[2]
  Competition with CD200 for binding to CD200R: outcompetes the intact CD200 protein for binding to the CD200R
[3]; GL261, 10 μg in the brain on day 2, then tumor lysate + inhibitor
  Tumor growth after inoculation of the inhibitor into the CNS tumor site: Tumor growth was delayed; also recorded: further suppressed tumor growth
[3]; GL261, tumor lysate + antagonist
  Survival enhancement / survival benefit: 30%
[3]; GL261
  Tumor growth: tumors grow faster in mice vaccinated with saline or tumor lysate alone compared to mice vaccinated with tumor lysate plus an antagonist; also recorded: slowed tumor growth
[3]; GL261, listed as CD200R antagonist
  Tumor growth: statistically significant inhibition of tumor growth
[3]
  Survival: increased survival benefit; also recorded: enhancing survival
[3]; listed as CD200R antagonist
  Survival: enhanced survival benefit
